Results from paper PMC9715518, “Human and rat microsomal metabolites of N-tert-butoxycarbonylmethamphetamine and its urinary metabolites in rat” (Forensic Toxicology, 2021).
“And” between values parts separate entries of the source, which are not always exact repeats. Identical values can stand only once.

Experiments:
[1] = Rat administration test, urinary excretion
[2] = Microsomal metabolism test, rat liver microsomes
[3] = pH 1.5, 37 °C; cited from earlier work
[4] = Microsomal metabolism test, human liver microsomes
[5] = rat no. 1, urine 0–4 h, BocMA 20 mg/kg i.p.
[6] = rat no. 1, urine 4–8 h, BocMA 20 mg/kg i.p.
[7] = rat no. 1, urine 8–24 h, BocMA 20 mg/kg i.p.
[8] = rat no. 1, urine 24–48 h, BocMA 20 mg/kg i.p.
[9] = rat no. 2, urine 0–4 h, BocMA 20 mg/kg i.p.
[10] = rat no. 2, urine 4–8 h, BocMA 20 mg/kg i.p.
[11] = rat no. 2, urine 8–24 h, BocMA 20 mg/kg i.p.
[12] = rat no. 3, urine 0–4 h, BocMA 20 mg/kg i.p.
[13] = rat no. 3, urine 4–8 h, BocMA 20 mg/kg i.p.
[14] = rat no. 3, urine 8–24 h, BocMA 20 mg/kg i.p.
[15] = rat no. 3, urine 24–48 h, BocMA 20 mg/kg i.p.
[16] = rat no. 3, urine 48–72 h, BocMA 20 mg/kg i.p.

## CC(Cc1ccccc1)N(C)C(=O)OC(C)(C)C (centres unmarked) [BocMA, N-tert-butoxycarbonylmethamphetamine]
[1]; average of 3 rats, urine 0–72 h total, BocMA 20 mg/kg i.p.
  BocMA absolute amount in urine: 16000 ng
[1]; [5]
  BocMA absolute amount in urine: 87 ng
  BocMA concentration in urine: 58 ng/mL
[1]; rat no. 1, urine 0–72 h total, BocMA 20 mg/kg i.p.
  BocMA absolute amount in urine: 240 ng
[1]; [6]
  BocMA absolute amount in urine: 8.9 ng
  BocMA concentration in urine: 8.9 ng/mL
[1]; [7]
  BocMA absolute amount in urine: 59 ng
  BocMA concentration in urine: 7.4 ng/mL
[1]; [8]
  BocMA absolute amount in urine: 84 ng
  BocMA concentration in urine: 12 ng/mL
[1]; [9]
  BocMA absolute amount in urine: 190 ng
  BocMA concentration in urine: 95 ng/mL
[1]; rat no. 2, urine 0–72 h total, BocMA 20 mg/kg i.p.
  BocMA absolute amount in urine: 310 ng
[1]; [10]
  BocMA absolute amount in urine: 78 ng
  BocMA concentration in urine: 39 ng/mL
[1]; [11]
  BocMA absolute amount in urine: 44 ng
  BocMA concentration in urine: 2.9 ng/mL
[1]; [12]
  BocMA absolute amount in urine: 2700 ng
  BocMA concentration in urine: 5400 ng/mL
[1]; rat no. 3, urine 0–72 h total, BocMA 20 mg/kg i.p.
  BocMA absolute amount in urine: 15000 ng
[1]; [13]
  BocMA absolute amount in urine: 4400 ng
  BocMA concentration in urine: 2200 ng/mL
[1]; [14]
  BocMA absolute amount in urine: 6800 ng
  BocMA concentration in urine: 680 ng/mL
[1]; [15]
  BocMA absolute amount in urine: 660 ng
  BocMA concentration in urine: 83 ng/mL
[1]; [16]
  BocMA absolute amount in urine: 810 ng
  BocMA concentration in urine: 90 ng/mL
[1]; rat urine over 72 h, average, n = 3
  Excreted BocMA as the unchanged form, share of the administered quantity: 0.13%
[1]; urine 0–72 h, BocMA 20 mg/kg i.p., n = 3
  Detection in rat urine (LC–QToF–MS): detected in urine from all rats
[2]; RLM test
  Incubation time at which peak intensity was highest: 0 min
[2]; RLM, first 3 min
  BocMA degraded: 83%
[2]; RLM, mean ± SD, n = 3
  ER (extraction ratio): 0.92 and 0.92 ± 0.01
[2]; RLM, scaled to whole liver, mean ± SD, n = 3
  CLint (estimated intrinsic clearance): 640 ± 70 mL/min/kg body wt.
[2]; RLM, well-stirred model without protein binding, mean ± SD, n = 3
  CLH (estimated hepatic clearance): 51 ± 1 mL/min/kg body wt.
[2]; rat, microsomes, pH 7.4
  half-life at 1 μg/mL: 2 ± 0.2 min
  microsomal CLint at 1 μg/mL: 360 ± 40 µL/min/mg
[3]
  Half-life in model gastric juice solution: 50 min
[4]; HLM, first 8 min
  BocMA degraded: 80%
[4]; HLM, mean ± SD, n = 3
  ER (extraction ratio): 0.90 and 0.90 ± 0.01
[4]; HLM, scaled to whole liver, mean ± SD, n = 3
  CLint (estimated intrinsic clearance): 200 mL/min/kg body wt. and 200 ± 20 mL/min/kg body wt.
[4]; HLM, well-stirred model without protein binding, mean ± SD, n = 3
  CLH (estimated hepatic clearance): 19 ± 1 mL/min/kg body wt.
[4]; human, microsomes, pH 7.4
  half-life at 1 μg/mL: 3.2 ± 0.3 min
  microsomal CLint at 1 μg/mL: 220 ± 20 µL/min/mg
